Assay: Dissolution times of calcium and magnesium in water at pH 7
Format: physicochemical
Details: water pH 7
Procedure: The dissolution times for calcium and magnesium were measured by dissolving each in a solution of water having a pH of 7. 331 mg of calcium was placed in a beaker containing the solution an allowed to dissolve. 165 mg of magnesium was then placed in a second beaker and dissolved. The results are listed below in Table 1 and shown graphically in FIG. 1.

[Ca+2] [CALCIUM, calcium]
Dissolution, percent (%) (dissolution time 0 min): 0%
Dissolution, percent (%) (dissolution time 15 min): 99.7%
Dissolution, percent (%) (dissolution time 30 min): 98.79%
Dissolution, percent (%) (dissolution time 45 min): 98.19%
Dissolution, percent (%) (dissolution time 60 min): 99.09%
Dissolution, percent (%) (dissolution time 75 min): 96.79%
Dissolution, percent (%) (dissolution time 90 min): 97.89%
Dissolution, percent (%) (dissolution time 105 min): 100%
Dissolution, percent (%) (dissolution time 120 min): 99.09%

[Mg+2] [MAGNESIUM, magnesium]
Dissolution, percent (%) (dissolution time 0 min): 0%
Dissolution, percent (%) (dissolution time 30 min): 4.93%
Dissolution, percent (%) (dissolution time 60 min): 10.61%
Dissolution, percent (%) (dissolution time 90 min): 16.48%
Dissolution, percent (%) (dissolution time 120 min): 21.76%
Dissolution, percent (%) (dissolution time 150 min): 26.61%
Dissolution, percent (%) (dissolution time 180 min): 31.82%
Dissolution, percent (%) (dissolution time 210 min): 36.67%
Dissolution, percent (%) (dissolution time 240 min): 41.82%
Dissolution, percent (%) (dissolution time 270 min): 46.79%
Dissolution, percent (%) (dissolution time 300 min): 50.67%
Dissolution, percent (%) (dissolution time 330 min): 55.21%
Dissolution, percent (%) (dissolution time 360 min): 58.91%

Source: patent US6887492B2, “Magnesium plus interactive agent delivery” (Leiner Health Services Corp., priority 2000, dated 2005)
